Patent US4161542A, “Heart active compounds” (priority 1975, dated 1979)

Tested on: β-receptors
Experiment: β-blocking activity in reserpinized anesthetized cat (block of isoprenaline effect on heart rate and peripheral resistance; intrinsic activity)
Assay type: in vivo
Settings: after final dose giving 100% blockade of isoprenaline response
Procedure: Anesthetized cats (males and females weighing 2.5-3.5 kg) were pretreated with reserpine (5 mg/kg bodyweight administered intramuscularly) about 16 hours before the experiments. The animals were pretreated with reserpine in order to eliminate the endogenous sympathetic control of heart rate and vascular smooth muscle tone. The cats were anesthetized with pentobarbital (30 mg/kg bodyweight administered i.p.) and artificially ventilated with room air. A bilateral vagotomy was performed in the neck. Blood pressure was obtained from a cannulated carotid artery and heart rate was registered from a cardiotachometer, triggered by the electrocardiogram (ECG). One […] artery was cannulated and perfused with the cat's own blood, delivered at a constant flow rate with a Watson Marlow roller pump. The perfusion pressure was recorded with a Statham pressure transducer. The blood flow rate was so adjusted that the initially recorded perfusion pressure was slightly above the systemic arterial mean blood pressure. In the studied hind limb the paw was excluded from the circulation by a tight ligature. An isoprenaline dose administered intravenously was established giving a submaximal heart rate (HR) increase and a submaximal decrease of peripheral vascular resistance (PR). The latter is shown as a drop of perfusion pressure.
To start the test, an initial dose of the test compound is injected into the animal. Ten minutes afterward the predetermined dose of isoprenaline is injected and the effect of the isoprenaline on the heart rate and peripheral resistance is noted. By comparing these observations with the normal response of the test animal to the predetermined dose of isoprenaline, the percent blockade of the HR and PR caused by the initial dose of test compound is calculated. The experiment is repeated with logrithmically increasing doses of the test compound (on a cumulative basis), alternating with the predetermined dose of isoprenaline every 10 minutes.
After the final dose of the test compound is administered--which is sufficient to cause a 100% blockade of the isoprenaline response--the intrinsic activity of the test compound is noted as the increase in heart rate relative to the basal heart rate of the test animal before the experiment began.

Row | SMILES | Intrinsic activity (increase in heart rate relative to basal)
1 | Cc1cccc(OCC(O)CNC(C)Cc2ccc(O)cc2)c1 (centres unmarked) [Ex. 15, 3-[2-(4-hydroxyphenyl)-1-methylethylamino]-1-m-methylphenoxy-propanol-2] | +16 beats/min.
2 | CCc1ccccc1OCC(O)C(C)NC(C)Cc1ccc(O)cc1 (centres unmarked) [Ex. 11, 3-methyl-3-[2-(4-hydroxyphenyl)-1-methylethylamino]-1-o-ethylphenoxy-propanol-2] | +18 beats/min.
3 | CCc1ccccc1OCC(O)CNC(C)(C)Cc1ccc(O)cc1 (centres unmarked) [Ex. 6, 3-[2-(4-hydroxyphenyl)-1,1-dimethylethylamino]-1-o-ethylphenoxy-propanol-2] | +38 beats/min.
4 | Cc1ccccc1OCC(O)C(C)NC(C)(C)Cc1ccc(O)cc1 (centres unmarked) [Ex. 13, 3-methyl-3-[2-(4-hydroxyphenyl)-1,1-dimethylethylamino]-1-o-methylphenoxy-propanol-2] | +9 beats/min.
5 | C=CCc1ccccc1OCC(O)CNC(C)Cc1ccc(O)cc1 (centres unmarked) [Ex. 3, 3-[2-(4-hydroxyphenyl)-1-methylethylamino]-1-o-allylphenoxy-propanol-2] | +33 beats/min.
6 | C#CCOc1ccccc1OCC(O)CNC(C)Cc1ccc(O)cc1 (centres unmarked) [Ex. 4, 3-[2-(4-hydroxyphenyl)-1-methylethylamino]-1-o-propargyloxyphenoxy-propanol-2] | +22 beats/min.
7 | Cc1ccccc1OCC(O)CNC(C)(C)Cc1ccc(O)cc1 (centres unmarked) [Ex. 5, 3-[2-(4-hydroxyphenyl)-1,1-dimethylethylamino]-1-o-methylphenoxy-propanol-2] | +62 beats/min.
8 | Cc1ccccc1OCC(O)CNC(C)Cc1ccc(O)cc1 (centres unmarked) [Ex. 1, 3-[2-(4-hydroxyphenyl)-1-methylethylamino]-1-o-methylphenoxy-propanol-2] | +16 beats/min.

Same assay, conditions: cumulative doses, vs isoprenaline i.v., heart rate

Row | SMILES | Block of isopren. ED50 HR (heart rate blockade) [mg/kg]
9 | Cc1cccc(OCC(O)CNC(C)Cc2ccc(O)cc2)c1 (centres unmarked) [Ex. 15, 3-[2-(4-hydroxyphenyl)-1-methylethylamino]-1-m-methylphenoxy-propanol-2] | 0.3
10 | CCc1ccccc1OCC(O)C(C)NC(C)Cc1ccc(O)cc1 (centres unmarked) [Ex. 11, 3-methyl-3-[2-(4-hydroxyphenyl)-1-methylethylamino]-1-o-ethylphenoxy-propanol-2] | 0.3
11 | CCc1ccccc1OCC(O)CNC(C)(C)Cc1ccc(O)cc1 (centres unmarked) [Ex. 6, 3-[2-(4-hydroxyphenyl)-1,1-dimethylethylamino]-1-o-ethylphenoxy-propanol-2] | 0.04
12 | Cc1ccccc1OCC(O)C(C)NC(C)(C)Cc1ccc(O)cc1 (centres unmarked) [Ex. 13, 3-methyl-3-[2-(4-hydroxyphenyl)-1,1-dimethylethylamino]-1-o-methylphenoxy-propanol-2] | 1.3
13 | C=CCc1ccccc1OCC(O)CNC(C)Cc1ccc(O)cc1 (centres unmarked) [Ex. 3, 3-[2-(4-hydroxyphenyl)-1-methylethylamino]-1-o-allylphenoxy-propanol-2] | 0.7
14 | C#CCOc1ccccc1OCC(O)CNC(C)Cc1ccc(O)cc1 (centres unmarked) [Ex. 4, 3-[2-(4-hydroxyphenyl)-1-methylethylamino]-1-o-propargyloxyphenoxy-propanol-2] | 0.12
15 | Cc1ccccc1OCC(O)CNC(C)(C)Cc1ccc(O)cc1 (centres unmarked) [Ex. 5, 3-[2-(4-hydroxyphenyl)-1,1-dimethylethylamino]-1-o-methylphenoxy-propanol-2] | 0.06
16 | Cc1ccccc1OCC(O)CNC(C)Cc1ccc(O)cc1 (centres unmarked) [Ex. 1, 3-[2-(4-hydroxyphenyl)-1-methylethylamino]-1-o-methylphenoxy-propanol-2] | 0.07

Same assay, conditions: cumulative doses, vs isoprenaline i.v., peripheral vascular resistance

Row | SMILES | Block of isopren. ED50 PR (peripheral resistance blockade) [mg/kg]
17 | Cc1cccc(OCC(O)CNC(C)Cc2ccc(O)cc2)c1 (centres unmarked) [Ex. 15, 3-[2-(4-hydroxyphenyl)-1-methylethylamino]-1-m-methylphenoxy-propanol-2] | 0.9
18 | CCc1ccccc1OCC(O)C(C)NC(C)Cc1ccc(O)cc1 (centres unmarked) [Ex. 11, 3-methyl-3-[2-(4-hydroxyphenyl)-1-methylethylamino]-1-o-ethylphenoxy-propanol-2] | 0.5
19 | CCc1ccccc1OCC(O)CNC(C)(C)Cc1ccc(O)cc1 (centres unmarked) [Ex. 6, 3-[2-(4-hydroxyphenyl)-1,1-dimethylethylamino]-1-o-ethylphenoxy-propanol-2] | 0.04
20 | Cc1ccccc1OCC(O)C(C)NC(C)(C)Cc1ccc(O)cc1 (centres unmarked) [Ex. 13, 3-methyl-3-[2-(4-hydroxyphenyl)-1,1-dimethylethylamino]-1-o-methylphenoxy-propanol-2] | 8.5
21 | C=CCc1ccccc1OCC(O)CNC(C)Cc1ccc(O)cc1 (centres unmarked) [Ex. 3, 3-[2-(4-hydroxyphenyl)-1-methylethylamino]-1-o-allylphenoxy-propanol-2] | 1.1
22 | C#CCOc1ccccc1OCC(O)CNC(C)Cc1ccc(O)cc1 (centres unmarked) [Ex. 4, 3-[2-(4-hydroxyphenyl)-1-methylethylamino]-1-o-propargyloxyphenoxy-propanol-2] | 0.35
23 | Cc1ccccc1OCC(O)CNC(C)(C)Cc1ccc(O)cc1 (centres unmarked) [Ex. 5, 3-[2-(4-hydroxyphenyl)-1,1-dimethylethylamino]-1-o-methylphenoxy-propanol-2] | 0.3
24 | Cc1ccccc1OCC(O)CNC(C)Cc1ccc(O)cc1 (centres unmarked) [Ex. 1, 3-[2-(4-hydroxyphenyl)-1-methylethylamino]-1-o-methylphenoxy-propanol-2] | 0.07

Target: T1, α-receptor (Rattus norvegicus, UniProt P43140)
T1 construct: from tissue; host or cells: isolated rat vas deferens
T1 sequence (P43140 1-466): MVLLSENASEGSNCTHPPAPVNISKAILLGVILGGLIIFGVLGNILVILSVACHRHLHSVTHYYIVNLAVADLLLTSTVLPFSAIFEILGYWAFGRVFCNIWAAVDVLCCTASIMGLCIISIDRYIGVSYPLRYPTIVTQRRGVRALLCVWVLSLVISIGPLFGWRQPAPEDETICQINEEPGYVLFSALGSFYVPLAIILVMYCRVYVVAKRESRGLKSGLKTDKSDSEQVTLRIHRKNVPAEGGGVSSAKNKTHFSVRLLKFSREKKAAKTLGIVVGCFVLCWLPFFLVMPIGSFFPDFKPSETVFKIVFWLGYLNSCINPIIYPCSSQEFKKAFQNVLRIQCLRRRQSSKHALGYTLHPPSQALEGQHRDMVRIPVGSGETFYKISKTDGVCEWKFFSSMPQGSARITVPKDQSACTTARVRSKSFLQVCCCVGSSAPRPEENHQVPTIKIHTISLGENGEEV
Experiment: α-blocking activity in isolated rat vas deferens (antagonism of noradrenaline contraction)
Settings: not given
Procedure: α-blocking activity was tested in isolated rat vas deferens. Rats were decapitated and the vas deferens was immediately dissected out and mounted in an oxygenated Krebs Ringer solution at 37° C. Noradrenaline administered to the bath caused α-receptor mediated contraction of vas deferens, which was recorded with an isometric tension transducer. Dose response curves to noradrenaline were constructed before and after three increasing doses of the test compound. By using Schildt plots pA2 values for α-receptor blockade were obtained. By definition pA2 =-log concentration of an antagonist (in this case, the test compound) which requires that the concentration of the related agonist (in this case noradrenaline) be doubled in the presence of the antagonist in order to produce the same effect as the agonist caused in the absence of the antagonist.

Row | SMILES | Kb [nM]
25 | C=CCc1ccccc1OCC(O)CNC(C)Cc1ccc(O)cc1 (centres unmarked) [Ex. 3, 3-[2-(4-hydroxyphenyl)-1-methylethylamino]-1-o-allylphenoxy-propanol-2] | 63.1

Same assay, conditions: isolated rat vas deferens, Krebs Ringer, 37° C., noradrenaline agonist, Schildt plot; read-out: pA2 (α-receptor blockade) (converted)

Row | SMILES | Kb [nM]
26 | Cc1cccc(OCC(O)CNC(C)Cc2ccc(O)cc2)c1 (centres unmarked) [Ex. 15, 3-[2-(4-hydroxyphenyl)-1-methylethylamino]-1-m-methylphenoxy-propanol-2] | 6310
27 | CCc1ccccc1OCC(O)C(C)NC(C)Cc1ccc(O)cc1 (centres unmarked) [Ex. 11, 3-methyl-3-[2-(4-hydroxyphenyl)-1-methylethylamino]-1-o-ethylphenoxy-propanol-2] | 631
28 | CCc1ccccc1OCC(O)CNC(C)(C)Cc1ccc(O)cc1 (centres unmarked) [Ex. 6, 3-[2-(4-hydroxyphenyl)-1,1-dimethylethylamino]-1-o-ethylphenoxy-propanol-2] | 158
29 | Cc1ccccc1OCC(O)C(C)NC(C)(C)Cc1ccc(O)cc1 (centres unmarked) [Ex. 13, 3-methyl-3-[2-(4-hydroxyphenyl)-1,1-dimethylethylamino]-1-o-methylphenoxy-propanol-2] | 631
30 | C#CCOc1ccccc1OCC(O)CNC(C)Cc1ccc(O)cc1 (centres unmarked) [Ex. 4, 3-[2-(4-hydroxyphenyl)-1-methylethylamino]-1-o-propargyloxyphenoxy-propanol-2] | 251
31 | Cc1ccccc1OCC(O)CNC(C)(C)Cc1ccc(O)cc1 (centres unmarked) [Ex. 5, 3-[2-(4-hydroxyphenyl)-1,1-dimethylethylamino]-1-o-methylphenoxy-propanol-2] | 1580
32 | Cc1ccccc1OCC(O)CNC(C)Cc1ccc(O)cc1 (centres unmarked) [Ex. 1, 3-[2-(4-hydroxyphenyl)-1-methylethylamino]-1-o-methylphenoxy-propanol-2] | 158
